Data published in the supplement of paper PMC10307832.

Compound: C1COCCN1CC2=CC(=O)C(=CO2)OCCCCCSC3=C4C=CC(=CC4=NC=C3)C(F)(F)F [EHT 1864]
Assay: relative viability (nuclei count vs DMSO), 5 days (fraction); higher = more cells survive
How it was run: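 Viability was defined as treated-well nuclei divided by vehicle-well nuclei, with the median taken over replicate plates. Cells from lung cancer lines sat overnight at 37 °C in 1536-well plates, received five √10-spaced library-drug doses by pinning on vehicle-anchored plates, and grew 5 days without medium change before one-step fixation, permeabilisation and Hoechst staining, 4× imaging and MetaXpress nuclear counts. Only plates with control CV under 25% and at least one doubling were kept.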

Cell Line | relative viability (0.04 µM) | relative viability (0.1265 µM) | relative viability (0.4 µM) | relative viability (1.265 µM) | relative viability (4 µM)
201T | 0.97 | 0.92 | 1.02 | 0.974 | 0.913
A549 | 0.88 | 0.937 | 0.921 | 0.948 | 0.883
A-427 | 0.975 | 0.922 | 1.03 | 0.956 | 0.882
ABC-1 | 1.13 | 0.964 | 0.946 | 0.7 | 0.627
BEN | 0.864 | 0.812 | 1.05 | 0.871 | 0.967
CAL-12T | 1.02 | 0.902 | 0.991 | 0.963 | 0.887
COR-L23 | 0.964 | 0.885 | 0.956 | 0.971 | 0.824
COR-L 105 | 0.893 | 0.869 | 1.05 | 0.975 | 0.945
Calu-6 | 1 | 0.93 | 1.01 | 0.991 | 0.955
ChaGo-K-1 | 1.02 | 0.976 | 0.996 | 0.95 | 0.992
EBC-1 | 0.942 | 0.865 | 0.961 | 0.931 | 0.924
EKVX | 0.96 | 0.931 | 0.946 | 0.962 | 0.968
EMC-BAC-2 | 1.02 | 0.896 | 1.04 | 0.993 | 0.971
EPLC-272H | 1.04 | 0.952 | 0.926 | 1.04 | 1.03
H3255 | 0.903 | 0.82 | 0.963 | 0.946 | 1.01
HARA | 0.962 | 0.782 | 1.1 | 1.14 | 1.05
HCC-15 | 1.03 | – | 0.976 | 0.941 | 1
HCC-44 | 0.987 | 0.867 | 0.97 | 0.935 | 0.974
HCC-78 | 0.968 | 0.907 | 0.923 | 0.922 | 1.13
HCC-366 | 1.01 | 0.804 | 1.01 | 1.07 | 1.06
HCC-827 | 1.03 | 0.821 | 1.07 | 0.99 | 1.02
HOP-62 | 1.05 | – | 1 | 1.04 | 1.07
IA-LM | 0.925 | – | 0.908 | 0.764 | 0.855
LC-2-ad | 0.966 | 0.716 | 1.03 | 0.946 | 0.934
LCLC-97TM1 | 1.01 | 0.762 | 1.01 | 0.881 | 0.903
LCLC-103H | 0.987 | 0.903 | 1.01 | 1.12 | 1.02
LK-2 | 1.04 | 0.793 | 0.979 | 1.04 | 0.929

Cell Line | relative viability (0.04 µM) | relative viability (0.1265 µM) | relative viability (0.4 µM) | relative viability (1.265 µM) | relative viability (4 µM)
LOU-NH91 | 0.973 | 0.909 | 1.05 | 1.04 | 0.892
LU99A | 0.883 | 0.758 | 0.968 | 1 | 0.893
LXF-289 | 0.961 | 0.932 | 0.95 | 0.961 | 0.886
NCI-H23 | 0.909 | 0.696 | 0.912 | 1.02 | 1.03
NCI-H322M | 0.95 | 0.921 | 0.942 | 1.05 | 0.923
NCI-H358 | 0.888 | 0.834 | 1.06 | 0.939 | 0.933
NCI-H441 | 1.03 | 0.747 | 0.941 | 1.12 | 1.17
NCI-H460 | 1.01 | 0.921 | 0.966 | 0.965 | 0.857
NCI-H520 | 0.885 | 0.889 | 0.889 | 1.04 | 1.02
NCI-H522 | 0.845 | 0.939 | 0.996 | 1 | 0.855
NCI-H596 | 0.947 | 0.829 | 1.02 | 0.929 | 0.991
NCI-H647 | 1.01 | 0.775 | 1.03 | 1.02 | 0.908
NCI-H650 | 0.894 | 0.846 | 0.968 | 1.01 | 1.03
NCI-H661 | 1.01 | 1.01 | 0.975 | 0.941 | 0.926
NCI-H727 | 0.924 | 0.909 | 0.936 | 0.979 | 0.946
NCI-H838 | 0.915 | 0.851 | 0.99 | 1.01 | 1
NCI-H1299 | 1.01 | 0.976 | 0.964 | 0.979 | 0.956
NCI-H1355 | 0.949 | 0.732 | 0.965 | 0.984 | 0.987
NCI-H1395 | 0.933 | 0.752 | 1.01 | 0.86 | 0.861
NCI-H1437 | 1.05 | 0.94 | 0.936 | 0.839 | 0.762
NCI-H1563 | 0.992 | 0.887 | 0.959 | 0.896 | 0.882
NCI-H1648 | 1.2 | 0.735 | 0.954 | 1.02 | 1.43
NCI-H1650 | 0.892 | 0.676 | 0.907 | 0.826 | 0.754
NCI-H1651 | 0.944 | 0.958 | 0.918 | 0.949 | 0.98
NCI-H1666 | 1.05 | 0.879 | 0.957 | 0.916 | 1.08
NCI-H1703 | 0.929 | 0.707 | 0.939 | 0.776 | 0.657
NCI-H1734 | 1.07 | 0.702 | 1.03 | 1.09 | 0.906

Cell Line | relative viability (0.04 µM) | relative viability (0.1265 µM) | relative viability (0.4 µM) | relative viability (1.265 µM) | relative viability (4 µM)
NCI-H1755 | 0.989 | 0.955 | 0.927 | 0.979 | 0.938
NCI-H1792 | 0.906 | – | 0.723 | 0.988 | 1
NCI-H1793 | 0.729 | 0.781 | 0.929 | 0.928 | 0.963
NCI-H1915 | 0.964 | – | 1.01 | 0.98 | 0.92
NCI-H1944 | 1.09 | – | 1 | 1.01 | 0.879
NCI-H1975 | 0.886 | 0.954 | 0.887 | 0.841 | 0.895
NCI-H1993 | 0.965 | – | 0.957 | 1.03 | 0.873
NCI-H2009 | 0.971 | 0.945 | 1.03 | 0.906 | 0.877
NCI-H2023 | 0.944 | 0.817 | 0.893 | 0.925 | 0.939
NCI-H2085 | 0.988 | 0.897 | 0.987 | 1.01 | 0.903
NCI-H2087 | 1.12 | – | 0.956 | 0.832 | 0.942
NCI-H2126 | 0.983 | 0.914 | 0.986 | 0.985 | 0.999
NCI-H2170 | 0.904 | 0.889 | 0.996 | 1.06 | 1.01
NCI-H2228 | 0.974 | 0.876 | 0.934 | 0.776 | 1
NCI-H2342 | 0.778 | 0.856 | 0.803 | 0.929 | 1.03
NCI-H2347 | 1.07 | 0.75 | 1.01 | 0.966 | 1.03
NCI-H2405 | 1.07 | 1 | 0.994 | 0.821 | 0.994
NCI-H3122 | 0.99 | 0.98 | 0.994 | 0.999 | 0.945
PC-3 [JPC-3] | 1.1 | 0.908 | 1.02 | 1.05 | 0.953
PC-14 | 1.01 | 0.823 | 1.04 | 1.03 | 0.939
RERF-LC-KJ | 1.02 | 0.928 | 0.936 | 0.994 | 0.956
SK-LU-1 | 1.07 | 0.93 | 1.01 | 0.993 | 0.939
SK-MES-1 | 0.97 | 0.943 | 1.02 | 0.967 | 0.974
SW 900 | 0.942 | – | 0.929 | 0.929 | 0.782
SW 1573 | 1.03 | 0.817 | 1.01 | 0.931 | 0.902
UMC-11 | 1 | 0.804 | 0.901 | 0.985 | 1.17
